The results in this text go back to patent publication US11161860B2, “Compound having effects of inhibiting phosphodiesterase 4, preparation method thereof and pharmaceutical use thereof” (Hefei Industrial Pharmaceutical Institute Co., Ltd., priority 2018, dated 2021).

Marks after values point to notes of the source that are not given here.

One test addresses T1, PDE4A enzyme (Homo sapiens, UniProt P27815).
T1 construct: GST (N); host or cells: Sf9 insect cells (baculovirus)
The test can be described thus: Inhibition of the activity of PDE4A enzyme (fluorescence polarization, Transcreener AMP2/GMP2). Format: biochemical. The settings on record: 1 h, mean ± spread; for remaining activity at 0.01 µM: 0.01 μM compound; for remaining activity at 0.1 µM: 0.1 μM compound; for remaining activity at 1 µM: 1 μM compound. The protocol: The PDE4A enzyme expressed from baculovirus is labeled with N-terminal GST from Sf9 insect cells. A specified PDE4A enzyme and 1 mM cAMP are added to the newly prepared pH 7.5 Tris buffer, the enzyme solution is transferred into reaction wells, and the compound is sonicated in DMSO and then added to the enzyme solution for culturing for 10 minutes at room temperature; the substrate solution is poured into the reaction wells to initiate the reaction and cultured at room temperature for 1 hour, and a detection tracer (AMP2/GMP2 AlexaFluor 633 Tracer) and an antibody (Transcreener® AMP2/GMP2 Antibody) are added to stop the reaction for culturing for 90 minutes with gentle mixing. […]
Background: Polarisation of emitted light reports the rotation of a fluorescent probe.

Test [1] concerns DNCB-induced atopic dermatitis mice. The test can be described thus: DNCB-induced dermatitis mouse model, skin thickness. The settings on record: for reduction of the thickness of the dermis compared with Crisaborole / reduction of the thickness of the epidermis compared with Crisaborole / reduction of the thickness of the dermis compared with the compound Y5 / reduction of the thickness of the epidermis compared with the compound Y5: 50 mg/mL topical; for reduction of the thickness of the dermis compared with Crisaborole / reduction of the thickness of the epidermis compared with Crisaborole: statistical comparison vs Crisaborole group; for Epidermal thickness / Dermis thickness: 50 mg/mL, 100 μL applied to back skin, 11 times once a day, Mean ± SD, n = 8; for Epidermal thickness: model 137.76, blank 48.93; for Dermis thickness: model 500.71, blank 194.70; for reduction of the thicknesses of the epidermal layer and dermal layer: vs model group, P<0.01; for reduction of the thickness of the dermis compared with the compound Y5 / reduction of the thickness of the epidermis compared with the compound Y5: statistical comparison vs Y5 group. Format: in vivo, female BALB/C mice. The protocol:
After female BALB/C mice are selected, each weighing 18-22 g, for animal adaptive breeding for 7 days, these are randomly divided into a blank group, a model group, a positive drug Crisaborole group, a hexadecadrol group, and compound groups, with 8 in each group. Except for the mice in the blank group, the remaining mice are applied with 100 μL of a 1% DNCB solution [acetone: olive oil=4:1 (V/V)] on the skin of the back of the shaved mice, and applied continuously for 3 days once a day. Then, dosing treatment starts 4 days after the mice are housed, and the test drug is applied to the back of each group of animals, wherein animals in the blank group and the model group are applied with a corresponding solvent, the positive drug Crisaborole group and hexadecadrol group are applied with 50 mg/mL of a corresponding drug, and the administration group is applied with 50 mg/mL of a corresponding compound, with 100 μL for each mouse; after application of 4 hours, 0.5% DNCB solution is applied for secondary challenge, and repeated administration and challenge treatment are performed 11 times, once a day. 24 hours after the last administration, the animals are sacrificed, and the back skins (1×0.4 cm^2) are taken and fixed in 10% formalin buffer to make pathological sections and perform HE staining; then, the epidermal and dermal layers are observed under a 100× […], and 5 areas are selected for detection of and recording the skin thickness, and then the average value is taken to represent the final thicknesses of the epidermal layer and dermal layer, respectively.

T1 sequence (P27815 whole entry, species assumed): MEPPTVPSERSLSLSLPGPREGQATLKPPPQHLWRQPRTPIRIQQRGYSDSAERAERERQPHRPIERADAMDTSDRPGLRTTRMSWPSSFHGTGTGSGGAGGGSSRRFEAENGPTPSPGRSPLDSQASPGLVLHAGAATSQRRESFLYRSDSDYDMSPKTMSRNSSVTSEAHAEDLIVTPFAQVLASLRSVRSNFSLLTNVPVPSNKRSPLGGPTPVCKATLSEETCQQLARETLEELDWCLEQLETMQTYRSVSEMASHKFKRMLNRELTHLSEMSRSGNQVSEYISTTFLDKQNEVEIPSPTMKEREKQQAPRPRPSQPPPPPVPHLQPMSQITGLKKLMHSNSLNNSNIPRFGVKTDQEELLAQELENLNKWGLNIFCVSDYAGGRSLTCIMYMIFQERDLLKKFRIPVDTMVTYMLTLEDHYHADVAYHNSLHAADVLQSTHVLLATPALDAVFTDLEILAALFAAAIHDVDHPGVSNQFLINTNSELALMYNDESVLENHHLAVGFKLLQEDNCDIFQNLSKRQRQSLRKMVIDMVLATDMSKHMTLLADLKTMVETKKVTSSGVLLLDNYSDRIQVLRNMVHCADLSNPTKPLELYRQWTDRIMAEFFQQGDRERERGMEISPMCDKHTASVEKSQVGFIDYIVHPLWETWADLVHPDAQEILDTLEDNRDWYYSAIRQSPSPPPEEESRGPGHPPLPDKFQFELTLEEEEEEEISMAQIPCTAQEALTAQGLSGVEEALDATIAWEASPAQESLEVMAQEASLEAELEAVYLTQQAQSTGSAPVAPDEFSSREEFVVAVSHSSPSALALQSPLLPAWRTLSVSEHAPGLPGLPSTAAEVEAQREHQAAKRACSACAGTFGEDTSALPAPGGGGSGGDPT

As a reminder, the remaining activity is what remains of the control signal, in per cent. High values mean a small loss of activity, low ones a large loss of activity. For `OB1OCc2cc(Oc3ccc(C(F)(F)F)cn3)ccc21` [Compound Y5, reference compound], at PDE4A enzyme, the remaining activity at 0.01 µM turned out to be 61.3 ± 3.18%, the remaining activity at 0.1 µM stood at 15.3 ± 1.3% and the remaining activity at 1 µM was 5.56 ± 0.28%. In test [1], the “reduction of the thickness of the dermis compared with Crisaborole” value was “significantly reduce the thickness of the dermis of dermatitis mice (P≤0.01)”, the “reduction of the thickness of the epidermis compared with Crisaborole” value was “significantly reduce the thickness of the epidermis of the dermatitis mice (P≤0.05)”, the Epidermal thickness is listed as 90.14 ± 8.98 μm and the Dermis thickness is given as 415.08 ± 25.00 μm. In addition, in test [1], the “reduction of the thicknesses of the epidermal layer and dermal layer” value was “significantly reduce the thicknesses of the epidermal layer and dermal layer”.
On PDE4A enzyme, `N#Cc1ccc(Oc2ccc3c(c2)COB3O)cc1` [Crisaborole, reference compound] came in with a remaining activity at 0.01 µM of 78 ± 5.02%, a remaining activity at 0.1 µM of 35.2 ± 3.35% and a remaining activity at 1 µM of 11 ± 0.52%. For the same compound, in test [1], the Epidermal thickness stood at 105.26 ± 11.35 μm; the Dermis thickness is on record as 455.14 ± 27.27 μm; the “reduction of the thicknesses of the epidermal layer and dermal layer” value is “significantly reduce the thicknesses of the epidermal layer and dermal layer”.
On PDE4A enzyme, `COC(=O)c1cccc2nc(Oc3ccc4c(c3)COB4O)ccc12` [PD-1] came in with a remaining activity at 0.01 µM of 18.8 ± 3.23%, a remaining activity at 0.1 µM of 5.45 ± 1.06% and a remaining activity at 1 µM of 3.74 ± 0.71%. Further, in test [1], the “reduction of the thickness of the dermis compared with Crisaborole” value is “significantly reduce the thickness of the dermis of dermatitis mice (P≤0.01)”, the “reduction of the thickness of the epidermis compared with Crisaborole” value was “significantly reduce the thickness of the epidermis (P≤0.01)”, the “reduction of the thickness of the dermis compared with the compound Y5” value is “significantly reduce the thickness of the dermis of dermatitis mice (P≤0.05)” and the “reduction of the thickness of the epidermis compared with the compound Y5” value is “significantly reduce the thickness of the epidermis (P≤0.01)”. Further, in test [1], the Epidermal thickness worked out at 75.64 ± 7.86 aa μm and the Dermis thickness came to 385.26 ± 20.17 a μm.
On PDE4A enzyme, `O=C(O)c1cccc2nc(Oc3ccc4c(c3)COB4O)ccc12` [PD-2] displayed a remaining activity at 0.01 µM of 7.42 ± 2.11%, a remaining activity at 0.1 µM of 3.8 ± 0.76% and a remaining activity at 1 µM of 2.75 ± 0.51%. In test [1], this compound showed an Epidermal thickness of 100.26 ± 11.35 μm and a Dermis thickness of 439.76 ± 30.02 μm.
As to `CCOC(=O)c1cccc2nc(Oc3ccc4c(c3)COB4O)ccc12` [PD-3], at PDE4A enzyme, the remaining activity at 0.01 µM is 17.3 ± 1.19%, the remaining activity at 0.1 µM was 4.94 ± 1.56% and the remaining activity at 1 µM was determined as 1.98 ± 0.47%. Moreover, in test [1], the “reduction of the thickness of the dermis compared with Crisaborole” value is reported as “significantly reduce the thickness of the dermis of dermatitis mice (P≤0.05)”, the Epidermal thickness is listed as 98.74 ± 9.63 μm and the Dermis thickness is 420.80 ± 30.55 μm.
At PDE4A enzyme, `N#Cc1ccc2nc(Oc3ccc4c(c3)COB4O)ccc2c1` [PD-4] returned a remaining activity at 0.01 µM of 6.17 ± 0.34%, a remaining activity at 0.1 µM of 2.49 ± 0.75% and a remaining activity at 1 µM of 1.95 ± 0.18%. In test [1], the “reduction of the thickness of the dermis compared with Crisaborole” value is “significantly reduce the thickness of the dermis of dermatitis mice (P≤0.01)”, the “reduction of the thickness of the epidermis compared with Crisaborole” value is recorded as “significantly reduce the thickness of the epidermis (P≤0.01)”, the “reduction of the thickness of the dermis compared with the compound Y5” value was “significantly reduce the thickness of the dermis of dermatitis mice (P≤0.01)” and the “reduction of the thickness of the epidermis compared with the compound Y5” value was “significantly reduce the thickness of the epidermis (P≤0.01)”. In test [1], this compound showed an Epidermal thickness of 70.42 ± 9.24 aa μm and a Dermis thickness of 375.06 ± 20.41 a a μm.
On PDE4A enzyme, `COC(=O)c1cc(Oc2ccc3c(c2)COB3O)nc2ccccc12` [PD-5] displayed a remaining activity at 0.01 µM of 9.01 ± 2.02%, a remaining activity at 0.1 µM of 7.27 ± 1.78% and a remaining activity at 1 µM of 3.46 ± 1.18%. In test [1], this compound registered an Epidermal thickness of 106.74 ± 15.14 μm and a Dermis thickness of 440.12 ± 23.22 μm.
At PDE4A enzyme, `OB1OCc2cc(Oc3ccc4cc(C(F)(F)F)ccc4n3)ccc21` [PD-6] gave a remaining activity at 0.01 µM of 0.9 ± 0.23%, a remaining activity at 0.1 µM of 0.6 ± 0.1% and a remaining activity at 1 µM of 0.32 ± 0.13%. Also, in test [1], the “reduction of the thickness of the dermis compared with Crisaborole” value was “significantly reduce the thickness of the dermis of dermatitis mice (P≤0.01)”, the “reduction of the thickness of the epidermis compared with Crisaborole” value was “significantly reduce the thickness of the epidermis (P≤0.01)”, the “reduction of the thickness of the dermis compared with the compound Y5” value is listed as “significantly reduce the thickness of the dermis of dermatitis mice (P≤0.01)” and the “reduction of the thickness of the epidermis compared with the compound Y5” value is “significantly reduce the thickness of the epidermis (P≤0.01)”. Moreover, in test [1], the Epidermal thickness is 70.87 ± 14.43 ^aa μm and the Dermis thickness is listed as 380.15 ± 22.54 ^a a μm.
`OB1OCc2cc(Oc3ccc4c(C(F)(F)F)cccc4n3)ccc21` [PD-7]: at PDE4A enzyme, the remaining activity at 0.01 µM turned out to be 6.41 ± 0.32%, the remaining activity at 0.1 µM was found to be 1.83 ± 0.41% and the remaining activity at 1 µM is 1.12 ± 0.99%. In addition, in test [1], the “reduction of the thickness of the dermis compared with Crisaborole” value is listed as “significantly reduce the thickness of the dermis of dermatitis mice (P≤0.01)”, the “reduction of the thickness of the epidermis compared with Crisaborole” value is “significantly reduce the thickness of the epidermis (P≤0.01)”, the “reduction of the thickness of the dermis compared with the compound Y5” value is reported as “significantly reduce the thickness of the dermis of dermatitis mice (P≤0.01)” and the “reduction of the thickness of the epidermis compared with the compound Y5” value is “significantly reduce the thickness of the epidermis (P≤0.01)”. Also, in test [1], the Epidermal thickness is 68.21 ± 7.66 aa μm and the Dermis thickness is listed as 370.11 ± 24.60 a a μm.
Take `OB1OCc2cc(Oc3ccc4c(C(F)(F)F)cc(Cl)cc4n3)ccc21` [PD-8]: at PDE4A enzyme, the remaining activity at 0.01 µM worked out at 4.36 ± 0.59%, the remaining activity at 0.1 µM was 2.25 ± 1.19% and the remaining activity at 1 µM was determined as 1.21 ± 0.17%. Further, in test [1], the “reduction of the thickness of the dermis compared with Crisaborole” value is listed as “significantly reduce the thickness of the dermis of dermatitis mice (P≤0.01)”, the “reduction of the thickness of the epidermis compared with Crisaborole” value is given as “significantly reduce the thickness of the epidermis (P≤0.01)”, the “reduction of the thickness of the dermis compared with the compound Y5” value was “significantly reduce the thickness of the dermis of dermatitis mice (P≤0.05)” and the “reduction of the thickness of the epidermis compared with the compound Y5” value is listed as “significantly reduce the thickness of the epidermis (P≤0.01)”. Further, in test [1], the Epidermal thickness is 76.58 ± 8.79**^##aa μm and the Dermis thickness is listed as 385.17 ± 28.85 ^a μm.
Take `N#Cc1ccc2nc(Oc3ccc4c(c3)COB4O)cc(C(F)(F)F)c2c1` [PD-9]: at PDE4A enzyme, the remaining activity at 0.01 µM stood at 3.41 ± 0.45%, the remaining activity at 0.1 µM came to 1.92 ± 0.39% and the remaining activity at 1 µM is 0.99 ± 0.85%. Moreover, in test [1], the “reduction of the thickness of the dermis compared with Crisaborole” value was “significantly reduce the thickness of the dermis of dermatitis mice (P≤0.05)”, the “reduction of the thickness of the epidermis compared with Crisaborole” value is reported as “significantly reduce the thickness of the epidermis of the dermatitis mice (P≤0.05)”, the Epidermal thickness was determined as 97.25 ± 10.43 μm and the Dermis thickness was determined as 413.25 ± 31.50 μm.
`COC(=O)c1ccc2nc(Oc3ccc4c(c3)COB4O)ccc2c1` [PD-10]: at PDE4A enzyme, the remaining activity at 0.01 µM turned out to be 10.8 ± 1.6%, the remaining activity at 0.1 µM was 2.45 ± 0.32% and the remaining activity at 1 µM came out at 1.55 ± 0.67%. In test [1], the “reduction of the thickness of the dermis compared with Crisaborole” value is “significantly reduce the thickness of the dermis of dermatitis mice (P≤0.01)”, the “reduction of the thickness of the epidermis compared with Crisaborole” value is listed as “significantly reduce the thickness of the epidermis (P≤0.01)”, the Epidermal thickness is 92.17 ± 9.94 μm and the Dermis thickness came out at 406.74 ± 29.54 μm.
On PDE4A enzyme, `NC(=O)c1cccc2nc(Oc3ccc4c(c3)COB4O)ccc12` [PD-11] displayed a remaining activity at 0.01 µM of 10.1 ± 1.93%, a remaining activity at 0.1 µM of 5.85 ± 0.72% and a remaining activity at 1 µM of 1.7 ± 0.43%. In test [1], this compound came in with an Epidermal thickness of 95.37 ± 8.75 μm and a Dermis thickness of 443.17 ± 33.40 μm.
Take `C[C@@H]1C[C@H]2[C@@H]3CCC4=CC(=O)C=C[C@]4(C)[C@@]3(F)[C@@H](O)C[C@]2(C)[C@@]1(O)C(=O)CO` [hexadecadrol, reference compound]: in test [1], the Epidermal thickness is on record as 72.14 ± 10.58 ^a a μm; the Dermis thickness was 377.32 ± 22.05**^a a μm; the “reduction of the thicknesses of the epidermal layer and dermal layer” value is “significantly reduce the thicknesses of the epidermal layer and dermal layer”.
